“Also recorded” adds a separate entry of the source. Counter-ions that a name gives are not always drawn. Values belong to the compound of their own block, whether it stands above or below them.
Columns and labels:
mGluR2 = mGluR2 (Homo sapiens, UniProt Q14416); conditions: read-out: IC50 against mGluR2; cited from earlier work
[1] = system: Group I or Group III receptors; conditions: sub-mM concentrations; cited from earlier work
mGluR3 = mGluR3 (Homo sapiens, UniProt Q14832); conditions: read-out: IC50 against mGluR3; cited from earlier work
[2] = system: KA, AMPA, and NMDA iGlu receptors; conditions: cited from earlier work
human mGlu3 = human mGlu3 (Homo sapiens, UniProt Q14832); conditions: in vitro; low nanomolar range; read-out: EC50 against human mGlu3 receptors; cited from earlier work
human mGlu2 = human mGlu2 (Homo sapiens, UniProt Q14416); conditions: in vitro; low nanomolar range; read-out: EC50 against human mGlu2 receptors; cited from earlier work
[3] = system: human neural stem cells (hNSCs); test: Astrocyte differentiation of hNSCs (GFAP staining); assay type: cell-based; conditions: for EC50: Homo sapiens, Neural stem cell, agent alone; for EC50 / effect on astrocyte differentiation (in words): hNSC; for effect on astrocyte differentiation (in words): GFAP; for maximum astrocyte differentiation: percent of positive control, agent alone or in combination
Protocol: Experiments were carried out as described in Example 1, except the positive control for astrocyte differentiation contained mitogen-free test media with a positive control, and cells were stained with GFAP antibody.
Experiments were carried out as described in Example 2, except the positive control for astrocyte differentiation contained mitogen-free test media with a different positive control.
(§1) Human neural stem cells (hNSCs) were isolated and grown in monolayer culture, plated, treated with varying concentrations of buspirone in the presence or absence of the melatonin agonist melatonin, and stained with TUJ-1 antibody for the detection of neuronal differentiation or GFAP antibody for the detection of astrocyte differentiation, as described above. Mitogen-free test media with a positive control for neuronal differentiation was used along with basal media without growth factors as a negative control.

[4] = system: human neural stem cells (hNSC); test: Immunohistochemistry with neuronal and astrocyte markers (TUJ-1, GFAP, Hoechst 33342); assay type: cell-based; conditions: incubated with 30 μM
Protocol: Immunohistochemistry was carried out as described above using TUJ-1 as a neuronal cell marker and GFAP as an astrocyte marker. The results are shown in FIG. […] Immunohistochemistry was carried out as described in Example 3.

[5] = system: human neural stem cells (hNSCs); test: Neuronal differentiation of human neural stem cells (TUJ-1 staining); assay type: cell-based; conditions: hNSC; for EC50: agent alone, data as % of neuronal positive control, basal media subtracted; for effect on neuronal differentiation (in words): TUJ-1
Description: Mitogen-free test media with a positive control was used for neuronal differentiation, and basal media without growth factors served as a negative control.
Mitogen-free test media with a positive control for neuronal differentiation was used, and basal media without growth factors served as a negative control.
as §1
(§2) Human neural stem cells (hNSCs) were isolated and grown in monolayer culture, plated, treated with varying concentrations of a 5-HT3 antagonist and stained with TUJ-1 antibody, as described above. Mitogen-free test media with a positive control for neuronal differentiation was used along with basal media without growth factors as a negative control.
as §2, with “5-HT4 agonist” for “5-HT3 antagonist”
The presence of synergy was determined by use of a combination index (CI). […] The CI is a quantitative measure of the nature of drug interactions, comparing the EC50's of two compounds, when each is assayed alone, to the EC50 of each compound when assayed in combination. The combination index (CI) is equal to the following formula: […]
where C1 and C2 are the concentrations of a first and a second compound, respectively, resulting in 50% activity in neuronal differentiation when assayed in combination; and IC1 and IC2 are the concentrations of each compound resulting in 50% activity when assayed independently.

Male F344 rats [6] = test: Novel Object Recognition (NOR) cognition assay; assay type: in vivo, rat; conditions: 1x per day for 28 days
Description: The apparatus consisted of an open field (45×45×50 cm high) made of polycarbonate. Triplicate copies were used of the objects to be discriminated. Care was taken to ensure that the pair of objects tested were made from the same material so that they could not be distinguished readily by olfactory cues although they had very different appearances.
Each test session consisted of two phases. In the initial familiarization phase, two identical objects (A1 and A2) were placed in the far corners of the box arena. A rat was then placed in the middle of the arena and allowed 15 minutes to explore both objects. Exploration of an object was defined as directing the nose to the object at a distance of less than 2 cm and/or touching it with the nose. After a delay of 48-hours the rat was re-introduced to the arena (“test phase”). The box now contained a third identical copy of the familiar object (A3) and a new object (B). These were placed in the same locations as the sample stimuli, whereby the position (left or right) of the novel object in the test phase was balanced between rats. For half the rats, object A was the sample and object B was the novel alternative. The test phase was 15 minutes in duration, with the first 30 seconds of object interaction used to determine preference scores. Any animal with less than 15 seconds of object exploration were excluded from analysis.

Male F344 rats [7] = test: Novelty suppressed feeding (NSF) depression assay; assay type: in vivo, rat; conditions: 1x per day for 21 days; for latency to eat the food pellet (percent baseline): 0.5 mg/kg buspirone, 3.0 mg/kg melatonin or both, i.p.
Protocol: Twenty-four hours prior to behavioral testing, all food is removed from the home cage. At the time of testing a single pellet is placed in the center of a novel arena. Animals are placed in the corner of the arena and latency to eat the pellet is recorded. […] Animals receive compound daily for 21 days and testing is performed on day 21. A decreased latency to eat the food pellet is indicative of both neurogenesis and antidepressant activity.
Twenty-four hours prior to behavioral testing, all food is removed from the home cage. At the time of testing a single pellet is placed in the center of a novel arena. Animals are placed in the corner of the arena and the latency (in time) to eat the pellet is recorded. […] Animals receive compound daily for 21 days and testing is performed on day 21. A decreased latency to eat the food pellet is indicative of both neurogenesis and antidepressant activity.

[8] = system: granule cell layer of the dentate gyrus; test: In vivo neurogenesis (BrdU positive cell counts); set-up: species or system rat; conditions: 0.5 mg/kg buspirone, 3.0 mg/kg melatonin or both, i.p., 1x per day for 28 days
Protocol: BrdU was administered once daily between days 9 and 14 (100 mg/kg/day, i.p., n=12 per dose group). […] Data are presented as percent change in BrdU positive cells per cubic mm dentate gyrus.

[9] = Rat body weight during chronic dosing; conditions: buspirone 0.5 and 5.0 mg/kg i.p., 1x per day for 28 days
[10] = % of astrocyte positive control, basal media subtracted
[11] = buspirone 0.5 and 5.0 mg/kg i.p.

Sequence of human mGlu2 (Q14416 19-872): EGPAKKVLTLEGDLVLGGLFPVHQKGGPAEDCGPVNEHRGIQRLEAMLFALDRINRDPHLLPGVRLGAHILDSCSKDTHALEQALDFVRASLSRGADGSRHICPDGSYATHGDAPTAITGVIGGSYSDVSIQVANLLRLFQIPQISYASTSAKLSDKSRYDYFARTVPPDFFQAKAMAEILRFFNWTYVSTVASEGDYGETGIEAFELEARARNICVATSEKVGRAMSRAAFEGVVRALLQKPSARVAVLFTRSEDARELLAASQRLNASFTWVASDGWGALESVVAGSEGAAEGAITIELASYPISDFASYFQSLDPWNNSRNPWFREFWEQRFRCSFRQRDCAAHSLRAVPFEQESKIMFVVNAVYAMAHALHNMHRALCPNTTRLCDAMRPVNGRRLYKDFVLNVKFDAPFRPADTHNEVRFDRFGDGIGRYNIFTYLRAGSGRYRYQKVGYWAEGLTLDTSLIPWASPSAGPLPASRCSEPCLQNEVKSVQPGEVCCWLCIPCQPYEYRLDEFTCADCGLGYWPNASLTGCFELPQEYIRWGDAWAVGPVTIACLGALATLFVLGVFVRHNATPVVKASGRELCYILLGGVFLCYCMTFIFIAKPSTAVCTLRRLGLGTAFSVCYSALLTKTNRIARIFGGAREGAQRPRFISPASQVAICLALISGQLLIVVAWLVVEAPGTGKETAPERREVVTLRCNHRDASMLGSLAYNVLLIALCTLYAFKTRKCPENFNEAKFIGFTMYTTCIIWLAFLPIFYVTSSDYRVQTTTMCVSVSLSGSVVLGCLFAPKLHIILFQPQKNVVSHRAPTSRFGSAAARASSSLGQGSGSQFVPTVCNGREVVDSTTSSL
Sequence of mGluR2 (Q14416 19-872): as above
Sequence of mGluR3 (Q14832 23-879): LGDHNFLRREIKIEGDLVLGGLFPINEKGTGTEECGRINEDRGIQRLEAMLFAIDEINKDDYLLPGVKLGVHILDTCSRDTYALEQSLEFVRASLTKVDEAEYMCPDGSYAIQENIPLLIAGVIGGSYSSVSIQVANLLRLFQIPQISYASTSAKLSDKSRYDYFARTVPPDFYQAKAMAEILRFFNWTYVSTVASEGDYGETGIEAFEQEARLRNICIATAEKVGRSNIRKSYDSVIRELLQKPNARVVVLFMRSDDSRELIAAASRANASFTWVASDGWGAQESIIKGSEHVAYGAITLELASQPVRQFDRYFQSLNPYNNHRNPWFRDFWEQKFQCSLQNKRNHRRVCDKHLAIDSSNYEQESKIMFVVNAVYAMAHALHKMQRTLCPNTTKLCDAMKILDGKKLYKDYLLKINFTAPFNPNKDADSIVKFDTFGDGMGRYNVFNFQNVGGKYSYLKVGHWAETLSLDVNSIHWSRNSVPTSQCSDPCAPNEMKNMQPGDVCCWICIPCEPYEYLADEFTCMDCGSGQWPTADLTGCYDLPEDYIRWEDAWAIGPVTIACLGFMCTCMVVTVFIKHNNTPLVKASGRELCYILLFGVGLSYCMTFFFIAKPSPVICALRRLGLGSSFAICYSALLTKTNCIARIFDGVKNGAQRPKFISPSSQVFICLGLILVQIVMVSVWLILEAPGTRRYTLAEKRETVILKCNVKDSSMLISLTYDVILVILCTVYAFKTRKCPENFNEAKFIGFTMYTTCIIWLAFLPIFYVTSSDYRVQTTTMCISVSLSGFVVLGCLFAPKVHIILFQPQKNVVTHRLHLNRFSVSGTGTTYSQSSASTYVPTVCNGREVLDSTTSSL
Sequence of human mGlu3 (Q14832 23-879): as above

SMILES: NC1(C(=O)O)CCc2cc(P(=O)(O)O)ccc21 (racemic) [APICA, (RS)-1-amino-5-phosphonoindan-1-carboxylic acid]
- IC50 (mGluR2): ~30 µM
- activity against Group I or Group III receptors [1]: no appreciable activity
- IC50 (mGluR3): ~30 µM

SMILES: N[C@](CC1c2ccccc2Oc2ccccc21)(C(=O)O)[C@H]1C[C@@H]1C(=O)O [LY341495, (2S)-2-amino-2-(1S,2S-2-carboxycycloprop-1-yl)-3-(xanth-9-yl) propanoic acid]
- activity against KA, AMPA, and NMDA iGlu receptors [2]: substantially inactive

SMILES: N[C@@]1(C(=O)O)CO[C@H]2[C@H](C(=O)O)[C@H]21 [LY379268, (−)-2-oxa-4-aminobicyclohexane-4,6-dicarboxylic acid]
- EC50 (human mGlu3): < 0.01 µM
- EC50 (human mGlu2): < 0.01 µM

- EC50 [3, 10]: > 31.6 µM
- EC50 [5]: 5.8 µM
SMILES: CN1C(=O)COc2c(C(=O)NC3CN4CCC3CC4)cc(Cl)cc21 (stereo not shown) [azasetron]
- effect on astrocyte differentiation (in words) [3]: did not show a significant effect on astrocyte differentiation
- maximum astrocyte differentiation [3]: 33%
- lineage of hNSC monolayer in immunofluorescent image [4]: primarily of a neuronal lineage
- effect on neuronal differentiation (in words) [5]: promote differentiation of neural stem cells into neurons
- effect on neuronal differentiation (in words) ([5]; listed as Azasetron): significantly promoted neuronal differentiation

- EC50 [3]: 5.7 µM
- EC50 [5]: 9.4 µM
SMILES: O=C1CC2(CCCC2)CC(=O)N1CCCCN1CCN(c2ncccn2)CC1 [buspirone]
- preference for the novel object (visits, time spent) (Male F344 rats [6]; [11]): did not increase preference for the novel object; also recorded: did not demonstrate a significant effect on cognition
- latency to eat the food pellet (percent baseline) (Male F344 rats [7]): did not significantly reduce the latency to eat the food pellet
- latency to eat the food pellet (Male F344 rats [7]; [11]): did not significantly reduce the latency to eat the food pellet; also recorded: did not demonstrate a significant effect on novelty suppressed feeding
- BrdU positive cells per cubic mm dentate gyrus (percent change) [8]: did not significantly change the number of BrdU positive cells
- mean body weight [9]: dose-dependent decrease in mean body weight
- maximum astrocyte differentiation [3]: 60%

SMILES: CNCCC(Oc1ccc(C(F)(F)F)cc1)c1ccccc1 (stereo not shown) [fluoxetine]
- preference for the novel object (visits, time spent) (Male F344 rats [6]; fluoxetine 5 and 10 mg/kg p.o.): increased both the number of visits to, and the amount of time spent with, the novel object; also recorded: dose dependent increase in preference for the novel object
- latency to eat the food pellet (Male F344 rats [7]; fluoxetine 10.0 mg/kg p.o.): reduced the latency to eat the food pellet

- EC50 [3, 10]: > 31.6 µM
- EC50 ([5]; Homo sapiens, Neural stem cell): > 31.6 µM
SMILES: COc1ccc2[nH]cc(CCNC(C)=O)c2c1 [melatonin]
- latency to eat the food pellet (percent baseline) (Male F344 rats [7]): did not significantly reduce the latency to eat the food pellet
- BrdU positive cells per cubic mm dentate gyrus (percent change) [8]: did not significantly change the number of BrdU positive cells

- EC50 [3, 10]: > 31.6 µM
- EC50 ([5]; Homo sapiens, Neural stem cell): ~15.8 µM
- EC50 [5]: 10.4 µM
SMILES: CCOc1cc(N)c(Cl)cc1C(=O)NCC1CN(Cc2ccc(F)cc2)CCO1 (stereo not shown) [mosapride citrate]
- effect on astrocyte differentiation (in words) [3]: did not show a significant effect on astrocyte differentiation
- lineage of hNSC monolayer in immunofluorescent image [4]: primarily of a neuronal lineage
- effect on neuronal differentiation (in words) ([5]; listed as Mosapride citrate): significantly promoted neuronal differentiation
- effect on neuronal differentiation (in words) ([5]; listed as mosapride): promote differentiation of neural stem cells into neurons

From patent publication US7678808B2, “5 HT receptor mediated neurogenesis” (BrainCells, Inc., priority 2006, dated 2010)
